Assays:
NIH mice = test: Acute oral toxicity, median lethal dose (LD50); type: in vivo; conditions: for Category (GHS acute oral toxicity hazard category) / Hazard statement (GHS): based on oral LD50, according to GHS [39]; for Oral LD50: female NIH mice, single oral dose, 14 days observation
Description: All treatments were administrated orally (p.o.) according to the scheme mentioned below.
Acute toxicity tests were performed in order to measure the median lethal dose (LD50). After acclimatization, mice were randomly allocated to ten groups (n = 4), including the control group (e.g. water, Tween 80, or PO) and the experimental groups, each with a single dose of one of the IMPYs at 4 levels of dose (0.5, 1.0, 2.0, and 4.0 g/kg b.w.).
Animals were food deprived overnight prior to administration of the chemical compounds or vehicles, and food was returned 4 h after dosing. Animals had access to water ad libitum throughout the study.[27]^,[28]

Wistar rats [1] = test: Subacute toxicity: serum and urine glucose, urinary protein excretion; type: in vivo; conditions: for Filtered Load of Glucose / Fractional Excretion of Glucose / Serum Glucose / Urinary Glucose Excretion / Urinary Protein Excretion: rats, p.o., 14 days at 10% of LD50 (CCl4, APAP: once daily, 3 days), mean ± SEM, n = 6
Description: (§1) For toxicity tests, acclimatized rats were randomly allocated to 12 groups (n = 12 for the control and n = 6 for the rest groups). […] Meanwhile, the aforementioned vehicles (dose volume 2 mL/kg b.w.) were administered to 3 groups. […] The animals were then housed in individual metabolic cages to collect urine for a period of 6 h and then the volume was recorded. Afterward, blood samples were obtained and the serum was separated by centrifugation at 1,620 × g for 10 min at room temperature.
Serum and urine glucose concentration were calculated using GOD-PAP kits (RANDOX, Laboratories Ltd, UK). Urinary protein was quantified using the Bradford method.[29]
(§2) Serum and urinary creatinine were determined by the Jaffe method. With this value, evaluation was made of the fractional excretion of sodium (FES), fractional excretion of potassium (FEP), and fractional excretion of glucose.[30]^,[31] The GFR was calculated from clearance of endogenous creatinine using the conventional equation:where GFR (CCr) is the creatinine clearance rate (mL/min); UCr and SCr are the creatinine concentrations (mg/dL) in urine and serum, respectively; and φ is the urinary flow rate (UFR) (mL/min). To avoid the error from the tubular secretion of creatinine found in males, only female animals were used.
(§3) The levels of sodium and potassium were measured in urine and serum using a flame photometer (Corning 400, Medfield, United States). Calculation was made of the clearance, fractional excretion, and filtered load of sodium (FLS), filtered load of potassium (FLP), and filtered load of glucose (FLG) using the conventional equations:where CX is the clearance rate of X (mL/min), CCr is the creatinine clearance rate (mL/min), UX and SX are the […] concentrations of X, respectively, φ is the UFR (mL/min), FEX is the fractional excretion (%) of X, and FLX is the filtered load of X in μEq/min (Na^+ or K^+) or mg/min (glucose).

Wistar rats [2] = test: Subacute toxicity: glomerular filtration rate (creatinine clearance) and serum creatinine; type: in vivo; conditions: for Glomerular Filtration Rate / Serum Creatinine: rats, p.o., 14 days at 10% of LD50 (CCl4, APAP: once daily, 3 days), mean ± SEM, n = 6
Description: as §1, §2

Wistar rats [3] = test: Subacute toxicity: water and electrolyte balance (osmolality, sodium, potassium, urinary flow); type: in vivo; conditions: for osmolar clearance, change in words / freewater clearance, change in words: compared to the control group; for freewater clearance, change in words: significant by PLS VIP and ANOVA; for Filtered Load of Potassium / Filtered Load of Sodium / Fractional Excretion of Potassium / Fractional Excretion of Sodium / Serum Osmolality / Serum Potassium / Serum Sodium / U/S Osm ratio / Urinary Flow Rate / Urinary Potassium Excretion / Urinary Sodium Excretion: rats, p.o., 14 days at 10% of LD50 (CCl4, APAP: once daily, 3 days), mean ± SEM, n = 6
Description: as §1
Osmolality of serum and urine were assessed (in triplicate) by using a vapor pressure osmometer (Wescor 5500, Logan, United States). U/S ratio as well as osmolar (COsm) and free water clearances were calculated via conventional equations:where UOsm and SOsm are the osmolality values (mOsm/Kg) in urine and serum, respectively, and φ is the UFR (mL/min).
as §3

Wistar rats [4] = test: Subacute toxicity: serum alanine aminotransferase and alkaline phosphatase activity; type: in vivo; conditions: for Alanine Aminotransferase / Alkaline Phosphatase: serum, rats, p.o., 14 days at 10% of LD50 (CCl4, APAP: once daily, 3 days), mean ± SEM, n = 6
Description: (§4) For toxicity tests, acclimatized rats were randomly allocated to 12 groups (n = 12 for the control and n = 6 for the rest groups). […] Meanwhile, the aforementioned vehicles (dose volume 2 mL/kg b.w.) were administered to 3 groups. […] Upon completion of the 14-day treatments and before sample collection, the bladders of animals were emptied by gentle pressure on the lower part of the abdomen to induce urination. The animals were then housed in individual metabolic cages to collect urine for a period of 6 h and then the volume was recorded. Afterward, blood samples were obtained and the serum was separated by centrifugation at 1,620 × g for 10 min at room temperature.
The activities of serum alanine aminotransferase (ALT) and alkaline phosphatase (ALP) were measured with standard kits (RANDOX, Laboratories Ltd, UK).

[5] = test system: renal secretory pathway of organic anions; test: Active tubular secretion of organic acids (PAH uptake in kidney cortex slices); type: in vivo, rats; conditions: for PAH t/m ratio: kidney cortex slices, PAH 1 mM, 1 h, 25 °C, rats, p.o., 14 days at 10% of LD50 (CCl4, APAP: once daily, 3 days), mean ± SEM, n = 6
Description: as §4
p-Aminohippuric acid (PAH) was used as an indicator of the renal secretory pathway of organic anions. Kidneys were extracted and immediately submerged in Ringer solution (pH = 7.4 and mOsm = 290 ± 10 mOsm/kg) under constant bubbling with O2/CO2 (95/5%). The kidneys were decapsulated and slices of the kidney cortex were obtained, which were then incubated in Ringer solution containing PAH (1 mM) for 1 h at 25 °C under constant bubbling with O2/CO2 (95/5%). The levels of PAH were quantified with the Bratton-Marshall method and results were expressed as the PAH tissue/medium ratio (PAH t/m ratio).[31]^,[32]

Wistar rats [6] = test: Hepatic and renal lipid peroxidation (lipid-soluble fluorescence); type: in vivo; conditions: for Renal Lipoperoxidation: kidney; for Renal Lipoperoxidation / Hepatic Lipoperoxidation: rats, p.o., 14 days at 10% of LD50 (CCl4, APAP: once daily, 3 days), mean ± SEM, n = 6; for Hepatic Lipoperoxidation: liver
Description: as §4
Lipid peroxidation (LPO) was evaluated by the formation of lipid-soluble fluorescence, as previously described. Briefly, kidney and liver tissues were homogenized in 3 and 5 mL of phosphate buffer (0.2 M, pH = 7.4), respectively. A volume of 1 mL (kidney) or 0.8 mL (liver) of the homogenates was added to 7 mL of chloroform-methanol (2:1, v/v), and after 15 s of vortex mixing, the resulting mixture was cooled using an ice bath for 30 min to allow for phase separation. The fluorescence of the organic phase was measured using a Shimadzu fluorometer (Japan; λex = 370 nm; λem = 430 nm), whose sensitivity was adjusted to 140 fluorescence units by using 1 μg/mL of quinine sulfate in 50 mM H2SO4. The results were expressed as relative fluorescence units per milligram of protein.[33]
(§5) The protein concentration in homogenates was measured by the Bradford method.[29]

Wistar rats [7] = test: Hepatic and renal reactive oxygen species (DCF formation); type: in vivo; conditions: rats, p.o., 14 days at 10% of LD50 (CCl4, APAP: once daily, 3 days), mean ± SEM, n = 6; for Renal ROS: kidney; for Hepatic ROS: liver
Description: as §4
Reactive oxygen species (ROS) were measured by formation of 2′,7′-dichlorofluorescein (DCF). An aliquot of 10 μL (kidney) or 5 μL (liver) of the homogenates was added to 1,940 or 1,945 μL of TRIS:HEPES (18:1) and was incubated in the presence of 50 μL of 2′,7′-dichlorofluorescein diacetate for 1 h at 37 °C. In order to quench the reaction, the mixture was chilled using an ice bath. The fluorescence was measured using a Shimadzu fluorometer (Japan; λex = 488 nm; λem = 525 nm). The results were expressed as nM DCF formed per mg protein/h.[33]
as §5

[8] = in comparison with the control group

Compound	Category (GHS acute oral toxicity hazard category) (NIH mice)	Hazard statement (GHS) (NIH mice)	Oral LD50 (NIH mice) [g/kg b.w.]	Filtered Load of Glucose (Wistar rats [1]) [mg/min]	Fractional Excretion of Glucose (Wistar rats [1]) [%]	Serum Glucose (Wistar rats [1]) [mg/dL]	Urinary Glucose Excretion (Wistar rats [1]) [ng/min]	Urinary Protein Excretion (Wistar rats [1]) [µg/min]	Glomerular Filtration Rate (Wistar rats [2]) [mL/min]	Serum Creatinine (Wistar rats [2]) [mg/dL]	Filtered Load of Potassium (Wistar rats [3]) [µEq/min]	Filtered Load of Sodium (Wistar rats [3]) [µEq/min]	Fractional Excretion of Potassium (Wistar rats [3]) [%]	Fractional Excretion of Sodium (Wistar rats [3]) [%]	Serum Osmolality (Wistar rats [3]) [mOsm/kg]	Serum Potassium (Wistar rats [3]) [mEq/L]	Serum Sodium (Wistar rats [3]) [mEq/L]	U/S Osm ratio (Wistar rats [3])	Urinary Flow Rate (Wistar rats [3]) [µL/min]	Urinary Potassium Excretion (Wistar rats [3]) [µEq/min]	further results
O=C(O)c1cn2ccccc2n1 [Compound 3a, imidazo[1,2-a]pyridine-2-carboxylic acid]	5	May be harmful if swallowed	> 2.000	0.22 ± 0.03	0.05 ± 0.01	80.56 ± 2.31	92.91 ± 12.35	0.69 ± 0.14	0.28 ± 0.04	1.05 ± 0.05	1.98 ± 0.44	40.07 ± 7.62	27.89 ± 6.73	0.53 ± 0.16	304.73 ± 1.82	6.83 ± 0.54	148.12 ± 3.02	3.18 ± 0.61	2.20 ± 0.50	0.50 ± 0.12	FEG (fractional excretion of glucose), change in words (Wistar rats [1]; compared to control values): increased; FLG (filtered load of glucose), change in words (Wistar rats [1]; compared to control values): reduced; GFR, change in words (Wistar rats [2]; in comparison to the control group): lower; osmolar clearance, change in words (Wistar rats [3]): lower; freewater clearance, change in words (Wistar rats [3]): greater; FLS (filtered load of sodium), change in words (Wistar rats [3]; [8]): decreased; Urinary Sodium Excretion (Wistar rats [3]): 0.17 ± 0.05 µEq/min; Alanine Aminotransferase (Wistar rats [4]): 25.62 ± 1.27 U/L; Alkaline Phosphatase (Wistar rats [4]): 93.76 ± 13.08 U/L; PAH t/m ratio [5]: 2.25 ± 0.10; Renal Lipoperoxidation (Wistar rats [6]): 0.29 ± 0.03 URF/mg protein; Hepatic Lipoperoxidation (Wistar rats [6]): 0.79 ± 0.03 URF/mg protein; Renal ROS (Wistar rats [7]): 159.65 ± 14.96 nM de DCF/mg protein/h; Hepatic ROS (Wistar rats [7]): 349.63 ± 18.87 nM de DCF/mg protein/h
O=C(O)c1nc2ccccn2c1[N+](=O)[O-] [Compound 3b, 3-nitroimidazo[1,2-a]pyridine-2-carboxylic acid]	5	May be harmful if swallowed	> 2.000	0.74 ± 0.09	0.04 ± 3.7E-3	121.37 ± 8.03	262.45 ± 19.41	1.18 ± 0.23	0.63 ± 0.08	0.57 ± 0.12	4.15 ± 0.53	90.75 ± 12.03	11.63 ± 2.44	0.38 ± 0.05	293.74 ± 2.06	6.69 ± 0.40	144.61 ± 3.41	3.21 ± 0.39	3.75 ± 0.75	0.43 ± 0.07	Urinary Sodium Excretion (Wistar rats [3]): 0.34 ± 0.06 µEq/min; Alanine Aminotransferase (Wistar rats [4]): 32.76 ± 5.37 U/L; Alkaline Phosphatase (Wistar rats [4]): 56.63 ± 6.67 U/L; PAH t/m ratio [5]: 1.92 ± 0.23; PAH t/m ratio, change in words ([5]; versus control (2a also versus Tween 80 and 2b)): decreased; Renal Lipoperoxidation (Wistar rats [6]): 0.44 ± 0.09 URF/mg protein; Hepatic Lipoperoxidation (Wistar rats [6]): 0.80 ± 0.03 URF/mg protein; Renal ROS (Wistar rats [7]): 184.33 ± 42.31 nM de DCF/mg protein/h; Hepatic ROS (Wistar rats [7]): 290.96 ± 40.60 nM de DCF/mg protein/h
N#Cc1nc2ccccn2c1[N+](=O)[O-] [Compound 2b, 3-nitroimidazo[1,2-a]pyridine-2-carbonitrile]	4	Harmful if swallowed	1.606	2.29 ± 0.33	0.01 ± 1.8E-3	126.47 ± 5.03	109.06 ± 24.61	0.86 ± 0.20	1.81 ± 0.26	0.56 ± 0.08	10.21 ± 1.12	267.24 ± 51.35	13.47 ± 1.95	0.88 ± 0.29	288.93 ± 1.51	5.79 ± 0.31	141.65 ± 15.47	3.44 ± 0.10	8.29 ± 1.67	1.38 ± 0.21	FLG (filtered load of glucose), change in words (Wistar rats [1]; versus 2a): increased; urinary sodium excretion (USE), change in words (Wistar rats [3]; 2b versus control, tween 80, and 2a, 4 versus control): higher; potassium clearance, change in words (Wistar rats [3]; compared to the control (2b also versus 2a)): increased; urinary potassium excretion (UPE), change in words (Wistar rats [3]; compared to the control and 2a): increased; osmolar clearance, change in words (Wistar rats [3]): greater; freewater clearance, change in words (Wistar rats [3]): lower; UFR (urinary flow rate), change in words (Wistar rats [3]; [8]): increased; FES (fractional excretion of sodium), change in words (Wistar rats [3]; in comparison with tween 80): increased; Urinary Sodium Excretion (Wistar rats [3]): 1.87 ± 0.39 µEq/min; sodium clearance, change in words (Wistar rats [3]; versus control, tween 80, and 2a): higher; serum ALP, change in words (Wistar rats [4]; compared to the control (CCl4 also versus PO)): greater; Alanine Aminotransferase (Wistar rats [4]): 44.90 ± 2.46 U/L; Alkaline Phosphatase (Wistar rats [4]): 192.21 ± 38.07 U/L; PAH t/m ratio [5]: 2.11 ± 0.20; renal LPO, change in words (Wistar rats [6]; compared to the control group (CCl4 also versus PO)): greater; Renal Lipoperoxidation (Wistar rats [6]): 0.47 ± 0.03 URF/mg protein; Hepatic Lipoperoxidation (Wistar rats [6]): 0.64 ± 0.10 URF/mg protein; Renal ROS (Wistar rats [7]): 225.78 ± 56.22 nM de DCF/mg protein/h; Hepatic ROS (Wistar rats [7]): 208.65 ± 30.24 nM de DCF/mg protein/h

Reference: paper PMC9618103, “Exploratory toxicology studies of 2,3-substituted imidazo[1,2-a]pyridines with antiparasitic and anti-inflammatory properties” (Toxicology Research, 2022)
